Results: US9067941B2, “Fused heterocyclic azaindane carboxamide CGRP receptor antagonists” (Merck Sharp & Dohme Corp., priority 2010, dated 2015)
pKi: −log10 of the molar value.

target: T1, recombinant human CL receptor/RAMP1 (Homo sapiens, UniProt O60894+Q16602); test: Recombinant receptor binding assay (125I-hCGRP displacement, membranes of HEK 293 cells); conditions: 10 pM 125I-hCGRP, 3 h at room temperature
T1 construct: expressed in transfected cells; membranes
Method: RECOMBINANT RECEPTOR: Human CL receptor (Genbank accession number L76380) was subcloned into the expression vector pIREShyg2 (BD Biosciences Clontech) as a 5′NheI and 3′ PmeI fragment. Human RAMP1 (Genbank accession number A3001014) was subcloned into the expression vector pIRESpuro2 (BD Biosciences Clontech) as a 5′NheI and 3′NotI fragment. HEK 293 cells (human embryonic kidney cells; ATCC #CRL-1573) were cultured in DMEM with 4.5 g/L glucose, 1 mM sodium pyruvate and 2 mM glutamine supplemented with 10% fetal bovine serum (FBS), 100 units/mL penicillin and 100 μg/mL streptomycin, and maintained at 37° C. and 95% humidity. Cells were subcultured by treatment with 0.25% trypsin with 0.1% EDTA in HBSS. Stable cell line generation was accomplished by co-transfecting 10 μg of DNA with 30 μg Lipofectamine 2000 (Invitrogen) in 75 cm^2 flasks. CL receptor and RAMP1 expression constructs were co-transfected in equal amounts. Twenty-four hours after transfection the cells were diluted and selective medium (growth medium+300 μg/mL hygromycin and 1 μg/mL puromycin) was added the following day. A clonal cell line was generated by single cell deposition utilizing a FACS Vantage SE (Becton Dickinson). Growth medium was adjusted to 150 μg/mL hygromycin and 0.5 μg/mL puromycin for cell propagation.
RECOMBINANT RECEPTOR BINDING ASSAY: Cells expressing recombinant human CL receptor/RAMP1 were washed with PBS and harvested in harvest buffer containing 50 mM HEPES, 1 mM EDTA and Complete™ protease inhibitors (Roche). The cell suspension was disrupted with a laboratory homogenizer and centrifuged at 48,000 g to isolate membranes. The pellets were resuspended in harvest buffer plus 250 mM sucrose and stored at −70° C. For binding assays, 20 μg of membranes were incubated in 1 mL binding buffer (10 mM HEPES, pH 7.4, 5 mM MgCl2, and 0.2% BSA) for 3 h at room temperature containing 10 pM ^125I-hCGRP (GE Healthcare) and antagonist. The assay was terminated by filtration through 96-well GFB glass fiber filter plates (PerkinElmer) that had been blocked with 0.05% polyethyleneimine. The filters were washed 3 times with ice-cold assay buffer (10 mM HEPES, pH 7.4, and 5 mM MgCl2). Scintillation fluid was added and the plates were counted on a Topcount (Packard). Non-specific binding was determined and the data analysis was carried out with the apparent dissociation constant (Ki) determined by using a non-linear least squares fitting the bound CPM data to the equation below:
[formula] Where Y is observed CPM bound, Ymax is total bound counts, Ymin is non specific bound counts, (Ymax−Ymin) is specific bound counts, % Imax is the maximum percent inhibition, % I min is the minimum percent inhibition, radiolabel is the probe, and the Kd is the apparent dissociation constant for the radioligand for the receptor as determined by hot saturation experiments.

T1 sequence (Q16602 23-461): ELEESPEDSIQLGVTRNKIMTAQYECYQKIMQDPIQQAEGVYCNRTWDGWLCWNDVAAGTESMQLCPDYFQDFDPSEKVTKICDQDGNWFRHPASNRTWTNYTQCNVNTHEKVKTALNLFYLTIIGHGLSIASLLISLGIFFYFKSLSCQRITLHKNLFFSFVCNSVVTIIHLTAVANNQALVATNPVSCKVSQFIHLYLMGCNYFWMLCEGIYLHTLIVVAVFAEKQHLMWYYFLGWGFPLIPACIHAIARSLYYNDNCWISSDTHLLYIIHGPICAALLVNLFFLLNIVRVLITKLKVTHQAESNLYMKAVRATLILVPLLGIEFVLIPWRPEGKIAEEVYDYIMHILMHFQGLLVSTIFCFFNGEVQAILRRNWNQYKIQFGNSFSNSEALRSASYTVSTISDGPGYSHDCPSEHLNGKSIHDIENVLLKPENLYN
T1 sequence (O60894 27-148): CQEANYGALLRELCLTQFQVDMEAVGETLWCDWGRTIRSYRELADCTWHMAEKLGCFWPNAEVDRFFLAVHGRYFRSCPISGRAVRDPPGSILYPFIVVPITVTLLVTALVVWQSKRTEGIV

Q: `O=C(N[C@H]1C[C@@H](c2cccc(F)c2F)Cn2c(CC(F)(F)F)cnc21)c1cnc2c(c1)C[C@@]1(C2)C(=O)Nc2ncccc21` [Example 1.2, (6S)—N-[(6S,8S)-6-(2,3-Difluorophenyl)-3-(2,2,2-trifluoroethyl)-5,6,7,8-tetrahydroimidazo[1,2-a]pyridin-8-yl]-2′-oxo-1′,2′,5,7-tetrahydrospiro[cyclopenta[b]pyridine-6,3′-pyrrolo[2,3-b]pyridine]-3-carboxamide] was tested. Which pKi did it give?
A: 10.30

Q: How did the pKi turn out when `COC(C)(C)c1cnc2n1C[C@H](c1cccc(F)c1F)C[C@@H]2NC(=O)c1cnc2c(c1)C[C@@]1(C2)C(=O)Nc2ncccc21` [Example 1.11, (6S)—N-[(6S,8S)-6-(2,3-Difluorophenyl)-3-(2-methoxypropan-2-yl)-5,6,7,8-tetrahydroimidazo[1,2-a]pyridin-8-yl]-2′-oxo-1′,2′,5,7-tetrahydrospiro[cyclopenta[b]pyridine-6,3′-pyrrolo[2,3-b]pyridine]-3-carboxamide] was run?
A: 10.70

Q: How did the pKi turn out when `O=C(N[C@H]1C[C@@H](c2cccc(F)c2F)Cn2c(CC(F)(F)F)nnc21)c1cnc2c(c1)C[C@@]1(C2)C(=O)Nc2ncccc21` [Example 1.24, (6S)—N-[(6S,8S)-6-(2,3-Difluorophenyl)-3-(2,2,2-trifluoroethyl)-5,6,7,8-tetrahydro[1,2,4]triazolo[4,3-a]pyridin-8-yl]-2′-oxo-1′,2′,5,7-tetrahydrospiro[cyclopenta[b]pyridine-6,3′-pyrrolo[2,3-b]pyridine]-3-carboxamide] was run?
A: 9.72

Q: How did the pKi turn out when `C[C@@H]1[C@H](c2ccccc2)C[C@H](NC(=O)c2cnc3c(c2)C[C@@]2(C3)C(=O)Nc3ncccc32)c2ncc(CC(F)(F)F)n21` [Example 1.25] was run?
A: 10.22

Q: How did the pKi turn out when `C[C@@H]1[C@H](c2ccccc2)C[C@H](NC(=O)c2cnc3c(c2)C[C@@]2(C3)C(=O)Nc3ncccc32)c2ncc(C(C)(C)O)n21` [Example 1.26, (6S)—N-[(5R,6S,8S)-3-(2-Hydroxypropan-2-yl)-5-methyl-6-phenyl-5,6,7,8-tetrahydroimidazo[1,2-a]pyridin-8-yl]-2′-oxo-1′,2′,5,7-tetrahydrospiro[cyclopenta[b]pyridine-6,3′-pyrrolo[2,3-b]pyridine]-3-carboxamide] was run?
A: 9.85

Q: With `C[C@@H]1[C@H](c2ccccc2)C[C@H](NC(=O)c2cnc3c(c2)C[C@@]2(C3)C(=O)Nc3ncccc32)c2nnc(C3(C(F)(F)F)CC3)n21` [Example 1.27, (6S)—N-{(5R,6S,8S)-5-Methyl-6-phenyl-3-[1-(trifluoromethyl)cyclopropyl]-5,6,7,8-tetrahydro[1,2,4]triazolo[4,3-a]pyridin-8-yl}-2′-oxo-1′,2′,5,7-tetrahydrospiro[cyclopenta[b]pyridine-6,3′-pyrrolo[2,3-b]pyridine]-3-carboxamide] as the compound, how does the pKi read?
A: 9.44

Q: With `C[C@@H]1[C@H](c2ccccc2)C[C@H](NC(=O)c2cnc3c(c2)C[C@@]2(C3)C(=O)Nc3ncncc32)c2ncc(C(C)(C)O)n21` [Example 2.1, (6S)—N-[(5R,6S,8S)-3-(2-Hydroxypropan-2-yl)-5-methyl-6-phenyl-5,6,7,8-tetrahydroimidazo[1,2-a]pyridin-8-yl]-6′-oxo-5,6′,7,7′-tetrahydrospiro[cyclopenta[b]pyridine-6,5′-pyrrolo[2,3-d]pyrimidine]-3-carboxamide] as the compound, how does the pKi read?
A: 9.25
